Assay results reported in US8044069B2, “Compounds as calcium channel blockers” (Abbott Laboratories, priority 2008, dated 2011).

How the values were obtained:
human Cav2.2 = human Cav2.2 (Homo sapiens, UniProt Q00975); assay: Assessment of calcium channel activity using FLIPR (Ca2+ influx in IMR32 cells); type: cell-based; details: IMR32 cells endogenously expressing human Cav2.2; 60 minute pre-incubation; 2 μM nifedipine; depolarized with 80 mM KCl, 5 mM CaCl2
Outline: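 IMR32 cells were dye-loaded and pre-incubated 60 min with compound (10 μM to 0.1 nM) in 1.3 mM CaCl2 plus 2 μM nifedipine to block L-type channels. Cells were then depolarized with 80 mM KCl while Ca2+ was raised to 5 mM, and FLIPR read the influx. IC50 came from a sigmoidal fit of % inhibition versus the no-inhibitor control.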

Sprague Dawley rats = assay: Capsaicin induced secondary mechanical hyperalgesia model; type: in vivo; details: Rattus norvegicus, po, 1 h; 30 mg/kg p.o., 60 minutes before testing; secondary mechanical hyperalgesia 180 minutes after capsaicin; von Frey paw withdrawal threshold
Method: (ii) In Vivo Data—Capsaicin Induced Secondary Mechanical Hyperalgesia Model:
Sprague Dawley rats were briefly restrained, and capsaicin was administered at 10 μg in 10 μL of vehicle by intraplantar injection into the center of the right hind paw. Secondary mechanical hyperalgesia (SMH) was measured at the heel away from the site of injection 180 minutes following capsaicin exposure. Compounds and gabapentin (positive control), were administered p.o. 60 minutes before testing (2 hours after capsaicin) or i.p. 30 minutes before testing (2.5 hours after capsaicin). SMH was measured using calibrated von Frey filaments (Stoelting, Woodale, Ill.). Following the 1 hour habituation in the testing room, rats were moved to individual plexiglass chambers that sit on top of a wire mesh to allow for access for stimulation of the plantar surface of the hind paws. Rats were allowed to acclimate to the new chambers for 15 minutes before the onset of testing. The paw withdrawal threshold was determined by increasing and decreasing stimulus intensity (force: g) and calculated using Dixon's up-down method (Chaplan, S. R.; Bach, F. W.; Pogrel, J. W.; Chung, J. M.; Yaksh, T. L.; Quantitative assessment of tactile allodynia in the rat paw. J. Neuroscience Methods 1994, 53(1), 55-63). The filaments (maximum force of 15.0 g) were held in place for 8 seconds or until there was a withdrawal response from the mechanical stimulation.

Chain of human Cav2.2 (Q00975 whole entry): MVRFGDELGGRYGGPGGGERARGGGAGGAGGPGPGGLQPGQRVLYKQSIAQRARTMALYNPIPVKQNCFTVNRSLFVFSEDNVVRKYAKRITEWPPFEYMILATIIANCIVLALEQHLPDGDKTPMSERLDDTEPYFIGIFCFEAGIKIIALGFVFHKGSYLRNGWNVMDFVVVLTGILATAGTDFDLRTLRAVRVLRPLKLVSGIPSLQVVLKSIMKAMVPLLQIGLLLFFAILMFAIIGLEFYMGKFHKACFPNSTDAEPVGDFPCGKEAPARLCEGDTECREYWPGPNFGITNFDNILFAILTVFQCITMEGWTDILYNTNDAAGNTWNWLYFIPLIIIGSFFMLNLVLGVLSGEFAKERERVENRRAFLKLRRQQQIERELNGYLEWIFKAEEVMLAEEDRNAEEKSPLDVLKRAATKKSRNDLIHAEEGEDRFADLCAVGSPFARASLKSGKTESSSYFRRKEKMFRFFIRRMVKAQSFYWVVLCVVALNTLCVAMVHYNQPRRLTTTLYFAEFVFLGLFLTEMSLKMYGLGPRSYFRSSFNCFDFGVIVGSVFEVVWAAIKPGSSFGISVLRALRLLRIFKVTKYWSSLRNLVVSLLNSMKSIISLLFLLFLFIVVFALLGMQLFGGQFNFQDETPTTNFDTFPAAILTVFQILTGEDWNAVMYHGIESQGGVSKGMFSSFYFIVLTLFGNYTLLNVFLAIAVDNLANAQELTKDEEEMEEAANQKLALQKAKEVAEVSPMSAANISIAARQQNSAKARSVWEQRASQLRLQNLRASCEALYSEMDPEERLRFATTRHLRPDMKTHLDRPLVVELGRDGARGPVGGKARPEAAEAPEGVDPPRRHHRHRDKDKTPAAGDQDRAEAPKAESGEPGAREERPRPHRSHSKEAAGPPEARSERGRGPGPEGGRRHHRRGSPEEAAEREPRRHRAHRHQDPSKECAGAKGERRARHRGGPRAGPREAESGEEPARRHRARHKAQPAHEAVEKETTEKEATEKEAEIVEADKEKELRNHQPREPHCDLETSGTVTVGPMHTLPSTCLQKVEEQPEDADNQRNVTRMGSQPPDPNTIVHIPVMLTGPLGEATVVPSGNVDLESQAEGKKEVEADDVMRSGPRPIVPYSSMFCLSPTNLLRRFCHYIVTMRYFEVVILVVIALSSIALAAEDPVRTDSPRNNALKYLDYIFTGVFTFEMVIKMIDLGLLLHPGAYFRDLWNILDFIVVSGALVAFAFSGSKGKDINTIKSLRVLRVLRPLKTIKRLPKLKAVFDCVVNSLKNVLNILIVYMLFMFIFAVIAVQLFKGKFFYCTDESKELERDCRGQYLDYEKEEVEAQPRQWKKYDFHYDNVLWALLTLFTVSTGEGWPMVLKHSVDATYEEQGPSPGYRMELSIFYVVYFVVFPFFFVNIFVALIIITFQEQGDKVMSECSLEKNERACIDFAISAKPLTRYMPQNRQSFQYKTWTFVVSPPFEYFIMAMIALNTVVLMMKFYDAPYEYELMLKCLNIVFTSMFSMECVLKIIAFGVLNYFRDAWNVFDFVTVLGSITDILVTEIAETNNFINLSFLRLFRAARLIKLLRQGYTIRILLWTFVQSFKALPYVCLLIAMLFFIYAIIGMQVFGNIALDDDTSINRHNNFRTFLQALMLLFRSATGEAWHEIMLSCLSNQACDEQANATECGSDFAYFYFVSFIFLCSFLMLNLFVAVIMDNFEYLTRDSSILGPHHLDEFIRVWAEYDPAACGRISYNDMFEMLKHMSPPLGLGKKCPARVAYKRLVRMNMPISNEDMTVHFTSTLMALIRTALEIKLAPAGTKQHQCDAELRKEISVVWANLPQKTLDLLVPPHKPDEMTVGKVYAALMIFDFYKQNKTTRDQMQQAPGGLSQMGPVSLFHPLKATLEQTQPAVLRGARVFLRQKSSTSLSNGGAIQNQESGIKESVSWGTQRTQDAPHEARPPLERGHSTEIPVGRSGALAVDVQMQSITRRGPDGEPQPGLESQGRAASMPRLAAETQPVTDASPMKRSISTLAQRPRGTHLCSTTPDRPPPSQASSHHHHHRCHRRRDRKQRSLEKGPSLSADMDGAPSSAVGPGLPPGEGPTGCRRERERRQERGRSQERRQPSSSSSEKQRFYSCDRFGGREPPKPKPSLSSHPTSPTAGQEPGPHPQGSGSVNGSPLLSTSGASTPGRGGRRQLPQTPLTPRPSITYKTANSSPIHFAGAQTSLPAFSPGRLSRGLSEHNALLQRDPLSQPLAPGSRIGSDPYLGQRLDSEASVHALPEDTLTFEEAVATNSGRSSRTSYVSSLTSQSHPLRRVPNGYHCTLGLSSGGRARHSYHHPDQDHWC
Chain of human Cav2.2 (P54289 25-951 partner limits assumed): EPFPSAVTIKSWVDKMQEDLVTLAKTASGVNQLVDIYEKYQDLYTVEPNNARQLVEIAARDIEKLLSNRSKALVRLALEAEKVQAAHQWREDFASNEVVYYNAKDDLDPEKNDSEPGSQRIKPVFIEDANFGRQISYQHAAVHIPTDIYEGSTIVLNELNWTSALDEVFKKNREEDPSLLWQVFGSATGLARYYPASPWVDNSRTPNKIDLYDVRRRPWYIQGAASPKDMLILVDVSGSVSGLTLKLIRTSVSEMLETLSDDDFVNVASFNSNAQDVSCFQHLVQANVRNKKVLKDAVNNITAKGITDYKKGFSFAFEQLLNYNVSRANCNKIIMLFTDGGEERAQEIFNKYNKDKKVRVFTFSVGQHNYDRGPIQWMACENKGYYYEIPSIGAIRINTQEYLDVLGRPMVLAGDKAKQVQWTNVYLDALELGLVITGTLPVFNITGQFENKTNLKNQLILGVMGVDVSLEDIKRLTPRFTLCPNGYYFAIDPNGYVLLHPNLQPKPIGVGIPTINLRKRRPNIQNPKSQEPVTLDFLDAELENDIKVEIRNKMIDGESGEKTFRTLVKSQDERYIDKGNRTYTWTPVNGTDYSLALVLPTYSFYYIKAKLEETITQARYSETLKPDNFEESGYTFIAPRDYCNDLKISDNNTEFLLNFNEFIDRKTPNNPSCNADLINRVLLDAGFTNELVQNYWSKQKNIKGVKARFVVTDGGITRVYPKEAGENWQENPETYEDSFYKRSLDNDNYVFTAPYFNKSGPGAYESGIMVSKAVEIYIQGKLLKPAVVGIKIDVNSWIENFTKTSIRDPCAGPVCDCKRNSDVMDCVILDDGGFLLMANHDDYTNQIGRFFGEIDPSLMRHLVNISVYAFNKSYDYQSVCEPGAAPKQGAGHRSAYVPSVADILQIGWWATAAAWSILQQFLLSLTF
Chain of human Cav2.2 (P54289 952-1103 partner limits assumed): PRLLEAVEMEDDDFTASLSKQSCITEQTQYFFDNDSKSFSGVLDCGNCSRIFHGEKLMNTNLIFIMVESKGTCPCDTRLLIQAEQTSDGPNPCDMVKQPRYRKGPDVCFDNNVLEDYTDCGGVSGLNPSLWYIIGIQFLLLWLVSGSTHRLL
Chain of human Cav2.2 (P54284 whole entry partner): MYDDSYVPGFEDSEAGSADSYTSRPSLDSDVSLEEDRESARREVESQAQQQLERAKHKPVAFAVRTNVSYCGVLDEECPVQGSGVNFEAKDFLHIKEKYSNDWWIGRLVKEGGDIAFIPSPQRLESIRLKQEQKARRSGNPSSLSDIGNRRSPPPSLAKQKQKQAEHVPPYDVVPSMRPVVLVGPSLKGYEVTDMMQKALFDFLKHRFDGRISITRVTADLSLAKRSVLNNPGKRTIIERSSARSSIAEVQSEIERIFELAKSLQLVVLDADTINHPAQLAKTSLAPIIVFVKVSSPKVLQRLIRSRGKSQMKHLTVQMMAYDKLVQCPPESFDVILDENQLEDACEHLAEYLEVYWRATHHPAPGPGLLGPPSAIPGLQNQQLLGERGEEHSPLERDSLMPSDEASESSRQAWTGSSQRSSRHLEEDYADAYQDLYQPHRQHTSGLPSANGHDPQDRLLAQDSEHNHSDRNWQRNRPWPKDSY

SMILES | IC50 (human Cav2.2) | inhibition in vivo at 30 mg/kg (Sprague Dawley rats)
O=C(CN1CCCC(c2ccccc2)(c2ccccc2)C1=O)N1CCN(Cc2cccc(C(F)(F)F)c2)CC1 [Example 79, 1-(2-oxo-2-{4-[3-(trifluoromethyl)benzyl]piperazin-1-yl}ethyl)-3,3-diphenylpiperidin-2-one] | 930 nM | 49%
O=C(CN1CCC(c2ccccc2)(c2ccccc2)C1=O)N1CCN(C(c2ccccc2)c2ccccc2)CC1 [Example 1, 1-[2-(4-benzhydrylpiperazin-1-yl)-2-oxoethyl]-3,3-diphenylpyrrolidin-2-one] | 1100 nM | 61%
O=C(CN1CCCC(c2ccccc2)(c2ccccc2)C1=O)N1CCN(C(c2ccccc2)c2ccccc2)CC1 [Example 68, 1-[2-(4-benzhydrylpiperazin-1-yl)-2-oxoethyl]-3,3-diphenylpiperidin-2-one] | 1380 nM | 71%
O=C(CN1CCCC(c2ccccc2)C1=O)N1CCN(C(c2ccccc2)c2ccccc2)CC1 (stereo not shown) [Example 91, 1-[2-(4-benzhydrylpiperazin-1-yl)-2-oxoethyl]-3-phenylpiperidin-2-one] | 2180 nM | 58%
O=C(CN1CCC(c2ccc(F)cc2)C1=O)N1Cc2ccc(C(F)(F)F)cc2C1 (single isomer, unassigned; (+)) [Example 264, (+)-3-(4-fluorophenyl)-1-{2-oxo-2-[5-(trifluoromethyl)-1,3-dihydro-2H-isoindol-2-yl]ethyl}pyrrolidin-2-one] | 14100 nM | 49%
O=C(CN1CCC(c2ccccc2)(c2ccccc2)C1=O)N1CCN(C(c2ccccc2)c2ccccc2)C(=O)C1 [Example 28, 1-benzhydryl-4-[(2-oxo-3,3-diphenylpyrrolidin-1-yl)acetyl]piperazin-2-one] | 1090 nM | 60%
O=C(CN1CCC(c2ccc(F)cc2)(c2ccc(F)cc2)C1=O)N1CCN(C(c2ccccc2)c2ccccc2)CC1 [Example 58, 1-[2-(4-benzhydrylpiperazin-1-yl)-2-oxoethyl]-3,3-bis(4-fluorophenyl)pyrrolidin-2-one] | 830 nM | 97%

Now those with a lower IC50 (human Cav2.2), led by results:

IC50 (human Cav2.2) | SMILES | inhibition in vivo at 30 mg/kg (Sprague Dawley rats)
780 nM | O=C(CN1CCC(c2ccccc2)(c2ccccc2)C1=O)N1CCC(c2ccccc2)(c2ccccc2)C1 [Example 17, 1-[2-(3,3-diphenylpyrrolidin-1-yl)-2-oxoethyl]-3,3-diphenylpyrrolidin-2-one] | 50%
780 nM | O=C(CN1CCC(c2ccccc2)(c2ccccc2)C1=O)NC1CCN(Cc2cccc(C(F)(F)F)c2)CC1 [Example 41, 2-(2-oxo-3,3-diphenylpyrrolidin-1-yl)-N-{1-[3-(trifluoromethyl)benzyl]piperidin-4-yl}acetamide] | 75%
660 nM | O=C(CN1CCCC(c2ccccc2)(c2ccccc2)C1=O)N1CCC(c2ccccc2)(c2ccccc2)CC1 [Example 72, 1-[2-(4,4-diphenylpiperidin-1-yl)-2-oxoethyl]-3,3-diphenylpiperidin-2-one] | 78%
430 nM | O=C(CN1CCC(c2ccccc2)(c2ccccc2)C1=O)N1CCN(C(c2ccc(F)cc2)c2ccc(F)cc2)CC1 [Example 45, 1-(2-{4-[bis(4-fluorophenyl)methyl]piperazin-1-yl}-2-oxoethyl)-3,3-diphenylpyrrolidin-2-one] | 51%
